Literature values in patent US20050106263A1, “Green tea, multivitamin, mineral and herb based hair and male facial skin formulas” (priority 2003, published 2005).

Assays:
[1] = in vivo
hair loss = conditions: comparison drug, general statement

Structure (SMILES) | oral bioavailability [1] | effect on front hairline (hair loss) | persistence of effect after use is stopped (hair loss)
O=C(O[C@@H]1Cc2c(O)cc(O)cc2O[C@@H]1c1cc(O)c(O)c(O)c1)c1cc(O)c(O)c(O)c1 [EGCG, epigallocatchin-3-gallate] | low oral bioavailability | – | –
Nc1cc(N2CCCCC2)nc(N)[n+]1[O-] [Rogaine] | – | does not work well on the front hairline | must be continually used or its effects will not only cease but will reverse
